Test results from US20020072601A1, “Method for forming amino acid derivatives from tricyclic diketopiperazines” (University of Southern Mississippi, priority 2000, published 2002).

Test: Gelation studies: minimum concentration needed for solvent gelation
Type: physicochemical
Details: cooled to room temperature
Description: The ring-opening reaction of PyDKP with certain nucleophiles (Reaction 3) forms a class of pyroglutamate derivatives that gel organic solvents. In these experiments, the solubility and minimum concentration needed for solvent gelation were determined. Tetradecyl pyroglutamide was placed in various solvents which were then heated to their boiling point, except silicone and soybean oil, which were heated to 150° C. to prevent decomposition of the gelator. In most cases, regardless of partial insolubility in some instances, the various solvents formed immobile gels upon cooling to room temperature. All of the gels were thermoreversible, meaning the gel would revert back to liquid with the application of heat and then reform with cooling.

For `CCCCCCCCCCCCCCNC(=O)[C@@H]1CCC(=O)N1` [N-tetradecyl pyroglutamide, N-Pyroglutamyl tetradecylamine], the “gel Concentration” value (1-Propanol) was 50 g/L, the “gel Concentration” value (Acetonitrile) was 15 g/L and the “gel Concentration” value (Benzene) was 100 g/L. For the same compound, the “gel Concentration” value (Butanol) was 100 g/L, the “gel Concentration” value (Chloroform) was 160 g/L and the “gel Concentration” value (Dichioromethane) was 50 g/L. The “gel Concentration” value (Ethanol) was 30 g/L, the “gel Concentration” value (Methanol) was 30 g/L and the “gel Concentration” value (Silicone Oil) was 11 g/L. The “gel Concentration” value (Soybean Oil) was 11 g/L.
